Bridges are numbered along the chain shown (N, C = ends). Where no end group is shown, it is not given here.
Tested on: acetic acid-induced writhes
Assay: Acetic acid-induced writhing pain test
Type: in vivo, male ICR mice
Settings: for decrease in number of writhes: 90 min before i.p. 0.6% acetic acid, 15 min, n = 8, vs saline control (41 ± 8 writhes); for number of writhes (result in words): 0.01 and 0.1 mg/kg, 90 min prior to testing
Description: ASIC channels play a critical role in the perception of acid-induced pain [8, 38]. As effective inhibitors of ASIC1-containing channels, Mamb and Mamb-AL could serve as potential therapeutics for this type of pathology. To evaluate this hypothesis, we employed the acetic acid-induced writhing test as an in vivo model of acute pain. In this model, intraperitoneal administration of 0.6% acetic acid provokes a stereotypical behavior in mice characterized by abdominal contractions (acetic acid-induced writhes).
Figure 5 Analgesic effect of peptides Mamb and Mamb-AL in an acute pain model. Peptides were administered intramuscularly 90 min before testing. Their efficacy was assessed using the acetic acid-induced writhing test, where the number of writhes was counted after intraperitoneal administration of 0.6% acetic acid. Results are presented as mean ± SD (n = 8 for each group). Statistical analysis was performed using one-way ANOVA followed by Dunnett’s post hoc test. * p< 0.05, ** p< 0.01, *** p< 0.005, **** p< 0.001 indicate significant differences compared with the control group, and ns indicates no significant difference.
The number of writhes in the control group treated with saline was 41 ± 8. Administration of wild-type peptide at doses of 0.01 and 0.1 mg/kg decreased the number of writhes by approximately 29% and 27%, respectively.
Adult (8–10 weeks) male ICR mice (25–30 g, Animal Breeding Facility Branch of the Shemyakin–Ovchinnikov Institute of Bioorganic Chemistry, Russian Academy of Sciences, Pushchino, Russia) were housed in Type 3 standard polycarbonate cages (820 cm^2) with LIGNOCEL BK 8/15 bedding (JRS, Rosenberg, Germany) under controlled conditions (23 ± 2 °C, 12h light–dark cycle) with ad libitum access to food and water. Test substances were dissolved in saline and administered intramuscularly 90 min before testing. The visceral pain assay was performed as described by. Distinct groups (n = 8 for each group) of mice were administered with 0.6% acetic acid in saline intraperitoneally (i.p.). Writhing behavior was recorded for 15 min after the mice were placed in transparent glass cylinders. A blinded observer assessed the responses. No formal power analysis was performed prior to the experiments, as the effect size and variability of the peptide treatment were unknown. However, because the initial results were highly significant, no additional animals were used. No animals were excluded from the analysis. Peptides (Mamb and Mamb-AL) were compared with a saline control group using analysis of variance (ANOVA) with post hoc Dunnett’s test. Data are presented as mean ± standard deviation (SD).

Sequence	decrease in number of writhes (0.01 mg/kg intramuscular)	decrease in number of writhes (0.1 mg/kg intramuscular)	number of writhes (result in words)	analgesic effect relative to wild-type Mamb (0.01 and 0.1 mg/kg intramuscular)
LKCFQHGKVVTCHRDMKFCYHNTGMPFRNLKLILQGCSSSCSETENNKCCSTDRCNK (disulfide 3-19, 12-37, 41-49, 50-55 (inferred)) [Mamb]	approximately 29%	~27%	significantly reduced the number of writhes	
LKCYQHGKVVTCHRDAKFCYHNTGLPFRNLKLILQGCSSSCSETENNKCCSTDRCNK (disulfide 3-19, 12-37, 41-49, 50-55 (inferred)) [Mamb-AL]	~ 41%	~ 34%	significantly reduced the number of writhes	trend toward a stronger analgesic effect than the wild-type Mamb

— publication PMC11946789, “Two Amino Acid Substitutions Improve the Pharmacological Profile of the Snake Venom Peptide Mambalgin” (Toxins, 2025)
